Columns and labels:
[1] = target: Sodium-dependent dopamine transporter (Rattus norvegicus, UniProt P23977); experiment: Displacement of [3H]WIN 35428 from dopamine transporter in rat striatum after 120 mins by liquid scintillation counting analysis
[2] = Displacement of [3H]TCP from N-methyl D-aspartate receptor phencyclidine binding site in rat brain after 120 mins by liquid scintillation counting analysis; assay type: tissue-based
D(2) dopamine receptor = D(2) dopamine receptor (Rattus norvegicus, UniProt P61169); experiment: Displacement of [3H](-)-sulpiride from dopamine D2 receptor in rat brain after 120 mins by liquid scintillation counting analysis; assay type: tissue-based
Rattus norvegicus [3] = species on record: Rattus norvegicus; experiment: Selectivity ratio of Ki for rat brain sigma1 receptor to Ki for rat brain sigma2 receptor
Rattus norvegicus [4] = species on record: Rattus norvegicus; experiment: Selectivity ratio of Ki for rat brain sigma1 receptor to Ki for rat striatum dopamine transporter; assay type: tissue-based
[5] = Displacement of [3H]nisoxetine from norepinephrine transporter in rat cerebral cortex after 120 mins by liquid scintillation counting analysis; assay type: tissue-based
[6] = target: Sodium-dependent serotonin transporter (Rattus norvegicus, UniProt P31652); experiment: Displacement of [3H]paroxetine from serotonin transporter in rat brainstem after 120 mins by liquid scintillation counting analysis; assay type: tissue-based
[7] = target: Sigma non-opioid intracellular receptor 1 (Rattus norvegicus, UniProt Q9R0C9); experiment: Displacement of [3H](+)-pentazocine from sigma1 receptor in rat brain after 120 mins by liquid scintillation counting analysis; assay type: tissue-based
[8] = Displacement of [3H]di-o-tolylguanidine from sigma2 receptor in rat brain after 120 mins by liquid scintillation counting analysis; assay type: tissue-based
[9] = target: 5-hydroxytryptamine receptor 2A (Rattus norvegicus, UniProt P14842); experiment: Displacement of [3H]ketanserin from 5-HT2 receptor in rat brain after 120 mins by liquid scintillation counting analysis; assay type: tissue-based
[10] = Binding affinity to rat opioid receptor after 120 mins by radioligand displacement assay

Chain of 5-hydroxytryptamine receptor 2A (P14842 whole entry): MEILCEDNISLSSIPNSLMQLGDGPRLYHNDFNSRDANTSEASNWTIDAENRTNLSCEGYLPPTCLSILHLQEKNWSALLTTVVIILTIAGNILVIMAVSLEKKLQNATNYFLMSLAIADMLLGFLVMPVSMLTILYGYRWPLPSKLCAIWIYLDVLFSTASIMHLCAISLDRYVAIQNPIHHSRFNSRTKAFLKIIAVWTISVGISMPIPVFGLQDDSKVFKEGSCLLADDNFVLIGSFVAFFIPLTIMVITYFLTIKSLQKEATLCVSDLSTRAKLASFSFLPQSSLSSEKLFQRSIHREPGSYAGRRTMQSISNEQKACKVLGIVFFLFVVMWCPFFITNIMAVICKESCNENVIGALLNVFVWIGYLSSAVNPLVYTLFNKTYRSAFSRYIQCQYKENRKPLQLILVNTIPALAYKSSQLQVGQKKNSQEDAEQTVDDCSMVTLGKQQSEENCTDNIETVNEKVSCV
Chain of Sigma non-opioid intracellular receptor 1 (Q9R0C9 whole entry): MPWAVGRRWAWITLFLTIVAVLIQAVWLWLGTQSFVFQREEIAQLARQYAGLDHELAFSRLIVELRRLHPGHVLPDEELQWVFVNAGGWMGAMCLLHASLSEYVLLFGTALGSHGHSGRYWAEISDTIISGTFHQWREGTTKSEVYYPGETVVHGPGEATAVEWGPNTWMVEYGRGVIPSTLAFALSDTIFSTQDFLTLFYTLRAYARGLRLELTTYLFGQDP
Chain of Sodium-dependent dopamine transporter (P23977 whole entry): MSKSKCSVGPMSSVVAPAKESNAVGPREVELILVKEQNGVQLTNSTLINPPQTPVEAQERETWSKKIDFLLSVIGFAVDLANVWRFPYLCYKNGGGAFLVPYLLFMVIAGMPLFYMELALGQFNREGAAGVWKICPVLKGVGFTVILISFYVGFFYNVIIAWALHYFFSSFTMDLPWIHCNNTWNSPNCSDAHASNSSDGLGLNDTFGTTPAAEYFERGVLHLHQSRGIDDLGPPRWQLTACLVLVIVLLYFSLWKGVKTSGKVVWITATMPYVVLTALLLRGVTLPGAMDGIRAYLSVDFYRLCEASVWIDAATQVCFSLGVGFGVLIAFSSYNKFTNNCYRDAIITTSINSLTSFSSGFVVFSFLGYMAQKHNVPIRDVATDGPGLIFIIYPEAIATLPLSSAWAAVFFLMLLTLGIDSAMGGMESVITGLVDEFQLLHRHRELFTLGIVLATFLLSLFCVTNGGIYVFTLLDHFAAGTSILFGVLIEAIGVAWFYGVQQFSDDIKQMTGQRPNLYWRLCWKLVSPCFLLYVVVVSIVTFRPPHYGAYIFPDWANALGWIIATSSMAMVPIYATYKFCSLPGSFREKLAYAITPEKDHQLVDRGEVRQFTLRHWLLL
Chain of D(2) dopamine receptor (P61169 whole entry): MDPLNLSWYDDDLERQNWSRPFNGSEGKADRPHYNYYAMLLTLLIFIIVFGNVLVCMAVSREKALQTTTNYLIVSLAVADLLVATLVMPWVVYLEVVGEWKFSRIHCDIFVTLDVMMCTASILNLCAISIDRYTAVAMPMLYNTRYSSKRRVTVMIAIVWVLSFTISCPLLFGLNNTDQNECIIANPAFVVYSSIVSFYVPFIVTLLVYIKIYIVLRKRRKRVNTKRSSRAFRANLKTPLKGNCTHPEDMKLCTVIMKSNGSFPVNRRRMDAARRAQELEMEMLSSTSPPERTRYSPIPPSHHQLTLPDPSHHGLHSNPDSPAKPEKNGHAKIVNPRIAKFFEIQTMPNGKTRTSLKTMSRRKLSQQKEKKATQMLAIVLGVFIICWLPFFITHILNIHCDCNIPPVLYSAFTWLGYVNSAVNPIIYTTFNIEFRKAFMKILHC
Chain of Sodium-dependent serotonin transporter (P31652 whole entry): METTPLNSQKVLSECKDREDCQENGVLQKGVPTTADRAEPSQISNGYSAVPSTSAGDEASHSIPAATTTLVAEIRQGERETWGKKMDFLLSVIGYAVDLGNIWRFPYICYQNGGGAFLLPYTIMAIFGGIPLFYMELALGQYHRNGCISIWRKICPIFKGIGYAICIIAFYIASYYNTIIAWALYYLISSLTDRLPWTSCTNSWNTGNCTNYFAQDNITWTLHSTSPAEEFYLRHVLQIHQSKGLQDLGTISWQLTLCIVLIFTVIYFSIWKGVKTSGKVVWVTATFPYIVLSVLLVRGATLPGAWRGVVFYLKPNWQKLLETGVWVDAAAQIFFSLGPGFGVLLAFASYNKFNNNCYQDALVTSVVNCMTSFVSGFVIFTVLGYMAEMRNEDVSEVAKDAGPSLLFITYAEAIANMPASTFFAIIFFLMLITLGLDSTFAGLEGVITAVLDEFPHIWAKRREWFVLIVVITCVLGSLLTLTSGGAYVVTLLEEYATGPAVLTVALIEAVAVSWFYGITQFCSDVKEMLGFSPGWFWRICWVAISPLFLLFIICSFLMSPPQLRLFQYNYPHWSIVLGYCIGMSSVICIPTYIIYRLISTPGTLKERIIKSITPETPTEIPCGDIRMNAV

| SMILES | Ki [1] [nM] | Ki [2] [nM] | Ki (D(2) dopamine receptor) [nM] | Ratio Ki (Rattus norvegicus [3]) | Ratio Ki (Rattus norvegicus [4]) | Ki [5] [nM] | Ki [6] [nM] | Ki [7] [nM] | Ki [8] [nM] | Ki [9] [nM] | Ki [10] [nM] |
| --- | --- | --- | --- | --- | --- | --- | --- | --- | --- | --- | --- |
| Clc1ccc(N2CCN(CCCc3ccccc3)CC2)cc1 | 2650 | > 10000 | 660 | 0.011 | 4.5e-05 | > 10000 | 1100 | 0.12 | 10.9 | 391 | > 10000 |
| Clc1ccc(N2CCN(CCc3ccccc3)CC2)cc1 | 6 | > 10000 | 834 | 0.056 | 0.31 | > 10000 | 372 | 1.85 | 33.3 | 518 | > 10000 |
| Clc1cccc(N2CCN(CCc3ccccc3)CC2)c1 | 0.04 | > 10000 | 327 | 0.079 | 162 | 1110 | 802 | 6.47 | 82.3 | 53 | > 10000 |
| Clc1ccccc1N1CCN(CCCc2ccccc2)CC1 | 482 | > 10000 | 77 | 0.072 | 0.0012 | > 10000 | 409 | 0.56 | 7.79 | 952 | 4600 |
| Clc1ccccc1N1CCN(CCc2ccccc2)CC1 | 0.13 | > 10000 | 67 | 0.003 | 1.15 | 790 | > 10000 | 0.15 | 56.3 | 484 | 4830 |
| c1ccc(CCCN2CCN(c3ccccn3)CC2)cc1 | 9150 | > 10000 | 940 | 16.7 | 0.009 | > 10000 | > 10000 |  | 4.9 | 1240 | > 10000 |
| Clc1cccc(N2CCN(CCCc3ccccc3)CC2)c1 | > 10000 | > 10000 | 128 | 0.39 |  | > 10000 | 488 | 4.93 | 12.6 | 498 | > 10000 |
